Where a name gives a salt, the structure may show the parent alone.
How the values were obtained:
[1] = molecular target: T1, KRAS-G12D and SOS1 (Homo sapiens, UniProt P01116, G12D); test: Inhibition of KRAS-G12D/SOS1 binding (Cisbio binding kit, 665/615 ratio), Effect Embodiment A; conditions: read-out: GTP-KRAS-G12D:SOS1 IC50
T1 construct: purchased
Procedure, shortened: (§1)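 Compounds are tested over eleven threefold dilution steps in duplicate, with final DMSO at 1%.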

[2] = molecular target: T2, KRAS_G12D and cRAF (Homo sapiens, UniProt P01116, G12D); test: Inhibition of KRAS_G12D/cRAF binding (Cisbio binding kit, 665/615 ratio), Effect Embodiment B; conditions: read-out: GTP-KRAS-G12D:CRAF IC50
T2 construct: purchased
T2 sequence (P01116 1-188 isoform P01116-2 G12D): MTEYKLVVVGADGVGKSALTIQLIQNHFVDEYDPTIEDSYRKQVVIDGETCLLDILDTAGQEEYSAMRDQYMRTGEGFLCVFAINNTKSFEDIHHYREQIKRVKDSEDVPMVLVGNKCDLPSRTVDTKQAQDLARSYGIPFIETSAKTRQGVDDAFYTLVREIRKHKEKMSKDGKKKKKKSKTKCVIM
Procedure, shortened: as §1

[3] = molecular target: T3, KRAS_WT and SOS1 (Homo sapiens, UniProt P01116); test: Inhibition of KRAS_WT/SOS1 binding (Cisbio binding kit, 665/615 ratio), Effect Embodiment C; conditions: read-out: GTP-KRAS-WT:SOS1 IC50
T3 construct: purchased
T3 sequence (P01116 1-188 isoform P01116-2): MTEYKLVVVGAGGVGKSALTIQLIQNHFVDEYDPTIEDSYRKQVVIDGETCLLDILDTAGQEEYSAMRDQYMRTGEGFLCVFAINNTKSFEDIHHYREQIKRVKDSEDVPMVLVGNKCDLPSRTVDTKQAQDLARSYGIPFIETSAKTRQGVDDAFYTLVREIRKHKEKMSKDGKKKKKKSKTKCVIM
Procedure, shortened: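 Compounds tested as 3-fold, 11-point dilutions in duplicate at 1% DMSO final against the KRAS_WT/SOS1 binding system. IC50 derived by nonlinear regression fit.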

T1 sequence (P01116 1-188 isoform P01116-2 G12D): as the sequence (P01116 1-188 isoform P01116-2 G12D) above

SMILES | IC50 [1] | IC50 [2] | IC50 [3]
Oc1cc(-c2c(Cl)cc3c(N4CC5CCC(C4)N5)nc(OCCC4(N5CCCC5)CC4)nc3c2F)c2ccccc2c1 (single isomer, unassigned) [Compound 117, 4-((S or R)-4-((1R,5S)-3,8-diazabicyclo[3.2.1]octan-3-yl)-6-chloro-8-fluoro-2-(2-(1-(pyrrolidin-1-yl)cyclopropyl)ethoxy)quinazolin-7-yl)naphthalen-2-ol dihydrochloride] | 59.3 nM | 134 nM | 2130 nM
CN(C)CC(C)(C)COc1nc(N2CC3CCC(C2)N3)c2cc(Cl)c(-c3cc(O)cc4ccccc34)c(F)c2n1 (single isomer, unassigned) [Compound 118, 4-((S or R)-4-((1R,5S)-3,8-diazabicyclo[3.2.1]octan-3-yl)-6-chloro-2-(3-(dimethylamino)-2,2-dimethylpropoxy)-8-fluoroquinazolin-7-yl)naphthalen-2-ol dihydrochloride] | 19.5 nM | 53.7 nM | 2410 nM
Oc1cc(-c2c(Cl)cc3c(N4CC5CCC(C4)N5)nc(OCC4(CN5C6CCC5COC6)CC4)nc3c2F)c2ccccc2c1 (single isomer, unassigned) [Compound 119, 4-((7S or R)-2-((1-((3-oxa-8-azabicyclo[3.2.1]octan-8-yl)methyl)cyclopropyl)methoxy)-4-((1R,5S)-3,8-diazabicyclo[3.2.1]octan-3-yl)-6-chloro-8-fluoroquinazolin-7-yl)naphthalen-2-ol formate] | 14.5 nM | 14.4 nM | 160 nM
CC(C)(COc1nc(N2CC3CCC(C2)N3)c2cc(Cl)c(-c3cc(O)cc4ccccc34)c(F)c2n1)CN1C2CCC1COC2 (single isomer, unassigned) [Compound 120, 4-((7S or R)-2-(3-(3-oxa-8-azabicyclo[3.2.1]octan-8-yl)-2,2-dimethylpropoxy)-4-((1R,5S)-3,8-diazabicyclo[3.2.1]octan-3-yl)-6-chloro-8-fluoroquinazolin-7-yl)naphthalen-2-ol dihydrochloride] | 36.5 nM | 72.7 nM | 2670 nM
Oc1cc(-c2c(Cl)cc3c(N4CC5CCC(C4)N5)nc(OCCN4C5CCC4COC5)nc3c2F)c2ccccc2c1 (single isomer, unassigned) [Compound 124, 4-((7S or R)-2-(2-(3-oxa-8-azabicyclo[3.2.1]octan-8-yl)-ethoxy)-4-((1R,5S)-3,8-diazabicyclo[3.2.1]octan-3-yl)-6-chloro-8-fluoroquinazolin-7-yl)naphthalen-2-ol dihydrochloride] | 75.8 nM | 149 nM | 2890 nM
C[C@@H]1CN(CCCOc2nc(N3CC4CCC(C3)N4)c3cc(Cl)c(-c4cc(O)cc5ccccc45)c(F)c3n2)C[C@H](C)O1 (single isomer, unassigned) [Compound 125, 4-((S or R)-4-((1R,5S)-3,8-diazacyclo[3.2.1]octan-3-yl)-6-chloro-2-(3-((2S,6R)-2,6-dimethylmorpholine)propoxy)-8-fluoroquinolin-7-yl)naphthalen-2-ol hydrochloride] | 52.7 nM | 170 nM | 1680 nM
CN(C)C12CC(COc3nc(N4CC5CCC(C4)N5)c4cc(Cl)c(-c5cc(O)cc6ccccc56)c(F)c4n3)(C1)C2 (single isomer, unassigned) [Compound 127, 4-((S or R)-4-((1R,5S)-3,8-diazabicyclo[3.2.1]octan-3-yl)-6-chloro-2-((3-(dimethylamino)bicyclo[1.1.1]pentan-1-yl)methoxy)-8-fluoroquinazolin-7-yl)naphthalen-2-ol hydrochloride] | 87.6 nM | 251 nM | 6390 nM
